Measured values as given in patent US20250319094A1, “COMPOSITION FOR PREVENTING OR TREATING ATOPIC DERMATITIS” (Yonsei University BioHealth Technology Holdings, Inc., priority 2022, published 2025).
Each block holds one compound with its values, some of them ahead of it.

Tests used:
normal skin tissue = experiment: Cell viability (CCK-8) cytotoxicity on normal skin tissue cells; type: cell-based; conditions: overnight
Method: We sought to determine the optimal concentration of the drug Bentamapimod identified above that would not affect the cytotoxicity of the drug. To determine the final concentration of the drug, normal skin tissue was seeded as cells in […] 96-well plates using 5% (v/v) RPMI1640 medium (LONZA) and 1% penicillin/streptomycin medium and treated with bentamapimod at concentrations of 1 μM, 10 μM, 50 μM, 100 μM, and 200 μM, respectively, and incubated overnight in a 37° C. incubator. Then, 10 μl of Cell Counting Kit-8 drug (Dojindo Lot. PR863) was seeded into 96-well plates and the absorbance was measured at […] after 2 h.

[1] = tested on: atopic dermatitis-induced flaky tail mice; experiment: Treatment effect in HDM-induced atopic dermatitis mouse model (clinical photograph, dermatitis score); type: in vivo; conditions: 50 μM or 100 μM, 200 μL on back, 4 weeks
Method: The backs of the mice were shaved and exfoliated with a 4% diluted sodium dodecyl sulfate solution (SIGMA Lot #BCCD5615) once every 3 days to remove dead skin cells, and House Dust Mite (HDM), a typical trigger/exacerbator of atopic dermatitis, was topically applied to the mice to induce atopic skin lesions. The house dust mite ointment used was Atopic dermatitis challenging ointment from Biostir (Osaka, Japan), and atopic dermatitis-induced mice were prepared as described above (see FIG. 1).
In order to determine whether the bentamapimod drug discovered above has a therapeutic effect on atopic dermatitis, experiments were conducted using the mouse model prepared in the preliminary example and divided into control and experimental groups according to the timeline diagram shown in FIG. 4. […] To further verify the treatment effect, the flaky tail Mice dermatitis score of the atopic dermatitis mouse model according to the drug treatment was calculated by Wilcoxon-signed rank test and shown in FIG. 6. […]

[2] = tested on: atopic dermatitis-induced flaky tail mice; experiment: Acute wiping (pain) and scratching (itching) behavior after drug application; type: in vivo, mouse
Source text: The existing drug dexamethasone is widely used as a treatment for atopic dermatitis, but long-term use causes various local side effects such as skin atrophy, dilated skin capillaries, and hypopigmented spots. Tacrolimus, which was developed to minimize these long-term local side effects, solved the problem of long-term and permanent local side effects of steroid drugs, but short-term skin irritation symptoms are emerging as a new problem, as it is known that about 50% of patients experience burning and skin rash at the beginning of application. Therefore, it is necessary to overcome the skin irritation side effects, and we wanted to check whether the newly discovered drug of bentamapimod can resolve the above side effects while maintaining the effectiveness of the animal drug through behavioral analysis of pain and itching using Flaky Tail mice. Wiping the face with the forelegs was interpreted as a behavioral measure of pain in mice, and scratching with the hind legs was interpreted as a behavioral measure of itching (J Vis Exp. 2019 Sep. 27; (151)). […] Flaky tail mice were treated with 200 μL of the test agent per group for one week to facilitate comparison, and the number of itches and pain behaviors were quantified and graphed (see FIG. 8a and FIG. 8b).

flaky tail mice = experiment: Chronic itch behavior before and after application of test drug; type: in vivo, mouse; conditions: drug 3 times a week for 4 weeks after 4 weeks HDM; before vs after application
Method: Additional experiments were performed to compare the ITCH behavior before and after application of the dexamethasone, tacrolimus, and bentamapimod agents disclosed above. Specifically, atopic dermatitis was induced by applying 100 mg of HDM ointment to the backs of flaky tail mice for 4 weeks, after which drug treatments were applied 3 times a week for 4 weeks, and the chronic itch behavior before and after application of these test drugs was quantified and graphed (see FIG. 9a and FIG. 9b).

skin-specific T cells [3] = experiment: Flow cytometry of T cell fractions in skin of atopic dermatitis mouse model; type: in vivo; conditions: 4 weeks
Method: (§1) To test the effect of the newly discovered bentamapimod drugs on skin-specific T cells, flaky tail mice were induced with atopic skin lesions using HDM three times a week until week 4 of the experiment as described in the Preparations and Examples above, and then treated with each drug at different concentrations for another 4 weeks. To determine changes in skin-specific T cells in each animal, single suspensions were then prepared from spleen, skin, and lymph nodes, and T cells were stained with anti-CD3, anti-CD4, anti-CD8, and anti-CD45 antibodies. Flow cytometric analysis of skin-specific T cells was performed using anti-CD69 and anti-CD103 antibodies to observe changes in the number and distribution of skin-specific T cells in response to drug application.

[4] = tested on: T cells in skin-draining lymph nodes; experiment: FACS of T cell fractions in skin-draining lymph nodes of atopic dermatitis mouse model; type: in vivo
Method: as §1

skin-specific T cells [5] = experiment: Flow cytometry of skin T cells from atopic dermatitis patient skin after drug application; type: cell-based, human; conditions: immune cell fractions from skin tissue of atopic dermatitis patients
Method: To test the effect of the candidate drug on skin-specific T cells in human skin tissue, a single suspension was prepared using skin from a patient with atopic dermatitis. T cells were stained using anti-CD3, anti-CD4, anti-CD8, and anti-CD45 antibodies, and flow cytometry was performed on skin T cells using the skin TRM markers CD69 and CD103 to observe changes in the number and distribution of skin-specific T cells in response to drug application.

[6] = at the beginning of application; cited from earlier work

number of scratching and wiping behaviors versus control D.W group ([2]; 50 μM, 200 μL on back): no difference
number of scratching and wiping behaviors versus control D.W group ([2]; 100 μM, 200 μL on back): no difference
Structure (SMILES): N#CC(c1ccnc(OCc2ccc(CN3CCOCC3)cc2)n1)c1nc2ccccc2s1 (stereo not drawn) [bentamapimod, α-[2-[[4-(4-morpholinylmethyl)phenyl]methoxy]-4-pyrimidinyl]-2-benzothiazoleacetonitrile]
cell viability (normal skin tissue; 50 μM): greater than 90%
cell viability (normal skin tissue; 100 μM): greater than 90%
atopic dermatitis scores (Flaky tail Mice dermatitis score) ([1]; FIG. 6): equivalent to or better than those of conventional drugs
treatment effect on atopic dermatitis skin lesions (wounding, dryness, desquamation, erythema, hemorrhage, edema) ([1]; compared to conventional drugs, FIG. 5): clinically significant treatment effect
local irritation symptoms such as itching and pain ([2]; 50 μM and 100 μM): did not cause local irritation symptoms
chronic scratching behavior, treatment effect (flaky tail mice): treatment effect was particularly significant
percentage of CD3+, CD4+ T cells in the skin (skin-specific T cells [3]; 50 μM): significantly reduced in a dose-dependent manner
percentage of CD3+, CD4+ T cells in the skin (skin-specific T cells [3]; 100 μM): significantly reduced in a dose-dependent manner
percentage of CD69+ T cells and CD103+ T cells (skin-resident T cells) (skin-specific T cells [3]; skin): significantly reduced
percentage of skin-specific T cells compared to the control 0.1% dexamethasone group (skin-specific T cells [3]; skin): significantly reduced
CD3+ T cells in skin-draining lymph nodes ([4]; 100 μM): statistically significantly lower
CD3+ CD4+ CD69+ CD103+ T cells ([4]; 100 μM, skin-draining lymph nodes): statistically significantly lower
fraction of T cells expressing CD69 among CD3+ CD4+ T cells ([4]; skin-draining lymph nodes): reduced
percentage of T cells compared to the 0.1% dexamethasone group ([4]; skin-draining lymph nodes): significantly reduced
percentage of skin-specific T cells (skin-specific T cells [5]; 50 μM): significant dose-dependent decrease
percentage of skin-specific T cells (skin-specific T cells [5]; 100 μM): significant dose-dependent decrease

time at which wiping behaviors peaked ([2]; 0.1% concentration, 200 μL on back): 30 min
number of scratching behaviors ([2]; 0.1% concentration, 200 μL on back, in 30 minutes): 17 times
Structure (SMILES): C=CC[C@@H]1/C=C(\C)C[C@H](C)C[C@H](OC)[C@H]2O[C@@](O)(C(=O)C(=O)N3CCCC[C@H]3C(=O)O[C@H](/C(C)=C/[C@@H]3CC[C@@H](O)[C@H](OC)C3)[C@H](C)[C@@H](O)CC1=O)[C@H](C)C[C@@H]2OC [tacrolimus]
patients who experience burning and skin rash [6]: about 50%
